Read-outs that look alike come from different tables or passages of the source.
Columns and labels:
[1] = ABTS˙^+ radical scavenging assay; type: biochemical; conditions: for IC50: ABTS˙^+ scavenging
[2] = DPPH˙ radical scavenging assay; type: biochemical; conditions: for IC50: DPPH˙ scavenging
Cu^2+ chelation assay = type: biochemical
[3] = Ferric ions (Fe^3+) reducing antioxidant power by cyclic voltammetry
Summary of the method: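 Fe3+/Fe2+ redox peaks of potassium ferricyanide followed by cyclic voltammetry before and after compound addition, in 0.1 M HClO4 (pH 1.2) on screen-printed graphite and gold electrodes. Compounds at 0.5 mM and 2 mM (diluted from 5 mM stocks); antioxidant action read as changes in the ferricyanide peaks.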

[4] = DPPH˙ radical scavenging by cyclic voltammetry
HaCaT cells = assay: Cytotoxicity determination, MTT method; type: cell-based; conditions: Homo sapiens, HaCaT cells, MTT, 24 h
Summary of the method: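 Normal human HaCaT keratinocytes seeded at 12×10^3 cells/well and attached 24 h at 37 °C, 5% CO2 before treatment. After 24 h, MTT at 5 μg/mL/well applied for 2 h, formazan dissolved in isopropanol and read at 550 and 630 nm.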

[5] = compound 0.5 mM + Fe^3+/Fe^2+ (0.5 mM potassium ferricyanide), 1st Eox column
[6] = compound 0.5 mM + Fe^3+/Fe^2+ (0.5 mM potassium ferricyanide), 1st Iox column
[7] = compound + Fe^3+/Fe^2+, 1st Ered
[8] = compound + Fe^3+/Fe^2+, 1st Ired
[9] = compound + Fe^3+/Fe^2+, 2nd Eox
[10] = compound + Fe^3+/Fe^2+, 2nd Iox column
[11] = compound + Fe^3+/Fe^2+, 4th Eox column
[12] = compound + Fe^3+/Fe^2+, 4th Iox column
[13] = compound + Fe^3+/Fe^2+, 5th Eox
[14] = compound + Fe^3+/Fe^2+, 5th Iox column
[15] = compound alone 0.5 mM in 0.1 M HClO4, 2nd Eox
[16] = compound alone 0.5 mM in 0.1 M HClO4, 2nd Ered column
[17] = compound alone 0.5 mM in 0.1 M HClO4, 2nd Iox column
[18] = compound alone 0.5 mM in 0.1 M HClO4, 2nd Ired
[19] = compound alone 0.5 mM in 0.1 M HClO4, 3rd Eox column
[20] = compound alone 0.5 mM in 0.1 M HClO4, 3rd Iox column
[21] = compound alone 0.5 mM in 0.1 M HClO4, 4th Eox column
[22] = compound alone 0.5 mM in 0.1 M HClO4, 4th Iox column
[23] = compound alone 0.5 mM in 0.1 M HClO4, 5th Eox
[24] = compound alone 0.5 mM in 0.1 M HClO4, 5th Iox column
[25] = compound + DPPH, 30 min, 3rd Eox column
[26] = compound + DPPH, 30 min, 3rd Iox column
[27] = compound + DPPH, after 30 min of reaction, 1st Eox column
[28] = compound + DPPH, after 30 min of reaction, 1st Iox column
[29] = compound alone 0.5 mM in 0.1 M HClO4, 1st Eox column
[30] = compound alone 0.5 mM in 0.1 M HClO4, 1st Iox column
[31] = compound alone, 2nd Ered column

## C/C(=N\Nc1nc(-c2ccc(O)c(O)c2)cs1)c1ccc(O)cc1O.Cl [Compound 8a, (E)-2-(1-(2,4-dihydroxyphenyl)ethylidene)-1-(4-(3,4-dihydroxyphenyl)thiazol-2-yl)hydrazin-1-ium chloride]
[1]; 0.5 µg/mL
  % of ABTS˙^+ Scavenged: 25.40%
[1]; 0.75 µg/mL
  % of ABTS˙^+ Scavenged: 33.32%
[1]; 1 µg/mL
  % of ABTS˙^+ Scavenged: 41.07%
[1]; 1.5 µg/mL
  % of ABTS˙^+ Scavenged: 58.72%
[1]; 2.5 µg/mL
  % of ABTS˙^+ Scavenged: 90.97%
[1]
  IC50: 1.25 µg/mL
[2]; 1 µg/mL
  % of DPPH˙ Scavenged: 25.05%
[2]; 1.5 µg/mL
  % of DPPH˙ Scavenged: 31.43%
[2]; 2 µg/mL
  % of DPPH˙ Scavenged: 36.02%
[2]; 3 µg/mL
  % of DPPH˙ Scavenged: 47.13%
[2]; 5 µg/mL
  % of DPPH˙ Scavenged: 68.90%
[2]
  IC50: 3.26 µg/mL
Cu^2+ chelation assay; 3.36 µg/mL
  Chelation Capacity (%), cupric ions: 11.13%
Cu^2+ chelation assay; 6.72 µg/mL
  Chelation Capacity (%), cupric ions: 17.02%
Cu^2+ chelation assay; 10.08 µg/mL
  Chelation Capacity (%), cupric ions: 25.14%
Cu^2+ chelation assay; 13.44 µg/mL
  Chelation Capacity (%), cupric ions: 34.16%
Cu^2+ chelation assay; 16.80 µg/mL
  Chelation Capacity (%), cupric ions: 38.91%
[3]; 0.5 mM ferricyanide + 0.5 mM compound
  scavenging effect on ferric ion: highest scavenging effect
[3]; [5]
  Eox (V): 0.072 V
[3]; [6]
  Iox (μA): 0.17 μA
[3]; [7]
  Ered (V): 0.054 V
[3]; [8]
  Ired (μA): −8.37 μA
[3]; [9]
  Eox (V): 0.186 V
[3]; [10]
  Iox (μA): 17.73 μA
[3]; [11]
  Eox (V): 0.452 V
[3]; [12]
  Iox (μA): 12.93 μA
[3]; [13]
  Eox (V): 0.87 V
[3]; [14]
  Iox (μA): 18.64 μA
[3]; [15]
  Eox (V): 0.195 V
[3]; [16]
  Ered (V): 0.296 V
[3]; [17]
  Iox (μA): 2.32 μA
[3]; [18]
  Ired (μA): −5.09 μA
[3]; [19]
  Eox (V): 0.330 V
[3]; [20]
  Iox (μA): 7.42 μA
[3]; [21]
  Eox (V): 0.460 V
[3]; [22]
  Iox (μA): 7.70 μA
[3]; [23]
  Eox (V): 0.985 V
[3]; [24]
  Iox (μA): 3.45 μA
[4]; compound + DPPH, 30 min
  Iox (μA): 11.18 μA
[4]; compound + DPPH, 30 min, 2nd Eox
  Eox (V): 0.311 V
[4]; [25]
  Eox (V): 0.455 V
[4]; [26]
  Iox (μA): 20.68 μA
[4]; compound + DPPH, 30 min, 4th Eox column
  Eox (V): 0.908 V
[4]; compound + DPPH, 30 min, 4th Iox column
  Iox (μA): 6.39 μA
[4]; [27]
  Eox (V): 0.188 V
[4]; [28]
  Iox (μA): 11.53 μA
[4]; compound alone
  Iox (μA): 6.97 μA
[4]; [29]
  Eox (V): 0.193 V
[4]; [30]
  Iox (μA): 3.56 μA
[4]; compound alone, 2nd Eox
  Eox (V): 0.325 V
[4]; [31]
  Ered (V): 0.278 V
[4]; compound alone, 2nd Ired
  Ired (μA): −18.04 μA
[4]; compound alone, 3rd Eox column
  Eox (V): 0.459 V
[4]; compound alone, 3rd Iox column
  Iox (μA): 22.39 μA
[4]; compound alone, 4th Eox column
  Eox (V): 0.935 V
[4]; compound alone, 4th Iox column
  Iox (μA): 6.88 μA
HaCaT cells; read-out: IC50
  IC50: 113 µM
HaCaT cells; read-out: IC50 (µg/mL)
  IC50: 44.6 µg/mL

## Cl.Oc1ccc(/C=N/Nc2nc(-c3ccc(O)c(O)c3)cs2)c(O)c1 [Compound 8b, (E)-2-(2,4-dihydroxybenzylidene)-1-(4-(3,4-dihydroxyphenyl)thiazol-2-yl)hydrazin-1-ium chloride]
[1]; 0.5 µg/mL
  % of ABTS˙^+ Scavenged: 40.09%
[1]; 0.75 µg/mL
  % of ABTS˙^+ Scavenged: 44.44%
[1]; 1 µg/mL
  % of ABTS˙^+ Scavenged: 50.79%
[1]; 1.5 µg/mL
  % of ABTS˙^+ Scavenged: 66.66%
[1]; 2.5 µg/mL
  % of ABTS˙^+ Scavenged: 96.82%
[1]
  IC50: 0.91 µg/mL
[2]; 1 µg/mL
  % of DPPH˙ Scavenged: 39.38%
[2]; 1.5 µg/mL
  % of DPPH˙ Scavenged: 47.41%
[2]; 2 µg/mL
  % of DPPH˙ Scavenged: 54.37%
[2]; 3 µg/mL
  % of DPPH˙ Scavenged: 67.84%
[2]; 5 µg/mL
  % of DPPH˙ Scavenged: 91.38%
[2]
  IC50: 1.72 µg/mL
Cu^2+ chelation assay; 3.36 µg/mL
  Chelation Capacity (%), cupric ions: 7.34%
Cu^2+ chelation assay; 6.72 µg/mL
  Chelation Capacity (%), cupric ions: 11.97%
Cu^2+ chelation assay; 10.08 µg/mL
  Chelation Capacity (%), cupric ions: 16.62%
Cu^2+ chelation assay; 13.44 µg/mL
  Chelation Capacity (%), cupric ions: 20.30%
Cu^2+ chelation assay; 16.80 µg/mL
  Chelation Capacity (%), cupric ions: 26.71%
[3]; [5]
  Eox (V): 0.083 V
[3]; [6]
  Iox (μA): 0.34 μA
[3]; [7]
  Ered (V): 0.079 V
[3]; [8]
  Ired (μA): −8.01 μA
[3]; [9]
  Eox (V): 0.227 V
[3]; compound + Fe^3+/Fe^2+, 2nd Ered column
  Ered (V): 0.279 V
[3]; [10]
  Iox (μA): 28.09 μA
[3]; compound + Fe^3+/Fe^2+, 2nd Ired
  Ired (μA): −2.81 μA
[3]; [11]
  Eox (V): 0.449 V
[3]; [12]
  Iox (μA): 28.48 μA
[3]; [13]
  Eox (V): 0.79 V
[3]; [14]
  Iox (μA): 15.19 μA
[3]; [15]
  Eox (V): 0.249 V
[3]; [16]
  Ered (V): 0.303 V
[3]; [17]
  Iox (μA): 1.02 μA
[3]; [18]
  Ired (μA): −1.97 μA
[3]; [19]
  Eox (V): 0.349 V
[3]; [20]
  Iox (μA): 1.76 μA
[3]; [21]
  Eox (V): 0.450 V
[3]; [22]
  Iox (μA): 2.29 μA
[3]; [23]
  Eox (V): 0.989 V
[3]; [24]
  Iox (μA): 1.17 μA
[4]; compound + DPPH, 30 min, 1st Ered
  Ered (V): 0.259 V
[4]; compound + DPPH, 30 min, 1st Ired
  Ired (μA): −14.96 μA
[4]; [25]
  Eox (V): 0.457 V
[4]; [26]
  Iox (μA): 18.63 μA
[4]; [27]
  Eox (V): 0.247 V
[4]; [28]
  Iox (μA): 17.56 μA
[4]; [29]
  Eox (V): 0.259 V
[4]; [30]
  Iox (μA): 10.92 μA
[4]; [31]
  Ered (V): 0.127 V
[4]; compound alone, 2nd Ired
  Ired (μA): −3.52 μA
[4]; compound alone, 3rd Eox column
  Eox (V): 0.47 V
[4]; compound alone, 3rd Iox column
  Iox (μA): 29.61 μA
HaCaT cells; read-out: IC50
  IC50: 22.5 µM
HaCaT cells; read-out: IC50 (µg/mL)
  IC50: 8.54 µg/mL
